Assay results: ChEMBL document CHEMBL4346735, “Discovery and pharmacological evaluation of indole derivatives as potent and selective RORγt inverse agonist for multiple autoimmune conditions” (Bioorg Med Chem Lett, 2019)

Experiments:
[1] = Plasma protein binding in rat; assay type: ADME; conditions: read-out: PPB
[2] = tested on: Mus musculus; assay: (§1) Immunosuppressive activity in MOG (35 to 55 residues)/pertussis toxin-induced experimental allergic encephalomyelitis C57BL/6J mouse model assessed as reduction in IL-22 gene expression in spinal cord at 30 mg/kg, po bid measured at day 23 post MOG immunization/pertusis immunization relative to control; assay type: functional; conditions: 552 h
[3] = Metabolic stability in human hepatocytes assessed as parent compound remaining after 60 mins; assay type: ADME, cell-based, Hepatocyte; conditions: read-out: Stability
[4] = AUC in mouse brain at 10 mg/kg, po; assay type: ADME, organism-based
[5] = Oral bioavailability in mouse at 10 mg/kg; assay type: ADME, organism-based; conditions: in vivo
[6] = AUC in mouse skin at 10 mg/kg, po; assay type: ADME, organism-based, Zone of skin
[7] = Volume of distribution at steady state in mouse at 3 mg/kg, iv; assay type: ADME, organism-based; conditions: in vivo, read-out: Vdss
[8] = Cmax in mouse at 10 mg/kg, po; assay type: ADME, organism-based; design: dose 10 mg/kg, route oral; conditions: in vivo
[9] = Plasma protein binding in mouse; assay type: ADME; conditions: read-out: PPB (converted)
[10] = tested on: HepG2; assay: Cytotoxicity against human HepG2 cells
[11] = tested on: Mus musculus; assay: as §1, with “IL-17A” for “IL-22”, “19” for “23”; assay type: functional; conditions: 456 h
[12] = Cytotoxicity against Balb/c mouse splenocytes assessed as cell viability in presence of anti-CD3/anti-CD28 measured after 24 hrs; assay type: cell-based, Splenocyte; conditions: read-out: Activity
[13] = Tmax in mouse at 10 mg/kg, po; assay type: ADME, organism-based; conditions: in vivo
[14] = Clearance in mouse at 3 mg/kg, iv; assay type: ADME, organism-based; conditions: in vivo
[15] = tested on: Splenocyte; assay: Cytotoxicity against mouse splenocytes assessed as cell viability incubated for 6 days in presence of anti-CD4/anti-IFNgamma/TGFbeta/IL-6; assay type: cell-based; conditions: 144 h
[16] = Metabolic stability in simulated gastric fluid assessed as compound remaining after 15 mins; assay type: ADME; conditions: read-out: Stability
[17] = Metabolic stability in simulated intestinal fluid assessed as compound remaining after 2 hrs; assay type: ADME; conditions: read-out: Stability
[18] = Plasma protein binding in dog; assay type: ADME, Canis lupus familiaris; conditions: read-out: PPB
[19] = molecular target: T1, Nuclear receptor ROR-gamma (Mus musculus, UniProt P51450); assay: Transrepression of RORgammat in Balb/c mouse splenocytes assessed as reduction in anti-CD3/anti-CD28 stimulated IL-17 level measured after 48 hrs in presence of anti-CD3/anti-CD28 by ELISA; assay type: cell-based
T1 sequence (P51450 whole entry): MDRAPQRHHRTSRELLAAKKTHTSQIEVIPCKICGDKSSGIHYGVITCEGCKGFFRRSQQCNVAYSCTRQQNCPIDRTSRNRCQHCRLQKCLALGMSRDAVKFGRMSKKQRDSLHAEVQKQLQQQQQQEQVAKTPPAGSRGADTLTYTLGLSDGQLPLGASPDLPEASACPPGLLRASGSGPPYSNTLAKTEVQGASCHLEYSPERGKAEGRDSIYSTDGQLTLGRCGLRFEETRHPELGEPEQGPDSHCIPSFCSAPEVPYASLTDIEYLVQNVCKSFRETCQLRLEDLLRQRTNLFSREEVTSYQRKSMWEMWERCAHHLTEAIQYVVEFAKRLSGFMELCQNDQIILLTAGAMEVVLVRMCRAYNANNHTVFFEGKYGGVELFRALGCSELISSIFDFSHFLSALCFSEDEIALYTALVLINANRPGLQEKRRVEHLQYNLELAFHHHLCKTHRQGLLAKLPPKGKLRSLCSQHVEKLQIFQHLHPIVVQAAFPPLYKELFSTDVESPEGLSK

[20] = tested on: Mus musculus; assay: as §1, with “IL-17A” for “IL-22”; assay type: functional; conditions: 552 h
[21] = Metabolic stability in mouse liver microsomes assessed as parent compound remaining at 1 uM preincubated for 5 mins followed by NADPH addition after 30 mins by LC-MS/MS analysis; assay type: ADME, Microsome; conditions: read-out: Stability
[22] = Metabolic stability in simulated intestinal fluid assessed as compound remaining after 15 mins; assay type: ADME; conditions: read-out: Stability
[23] = Half life in mouse at 3 mg/kg, iv; assay type: ADME, organism-based; conditions: in vivo
[24] = tested on: Mus musculus; assay: Inhibition of anti-CD3-induced IL-17A level in Balb/c mouse plasma at 30 mg/kg, po treated prior to stimulation with anti-CD3 for 3 hrs relative to control; assay type: functional
[25] = Metabolic stability in human liver microsomes assessed as parent compound remaining at 1 uM preincubated for 5 mins followed by NADPH addition after 30 mins by LC-MS/MS analysis; assay type: ADME, Microsome; conditions: read-out: Stability
[26] = Metabolic stability in simulated intestinal fluid assessed as compound remaining after 60 mins; assay type: ADME; conditions: read-out: Stability
[27] = AUC (0 to 24 hrs) in mouse at 10 mg/kg, po; assay type: ADME, organism-based; design: dose 10 mg/kg, time < 24 hr, route oral; conditions: in vivo
[28] = Plasma protein binding in human; assay type: ADME; conditions: read-out: PPB
[29] = tested on: Mus musculus; assay: Inhibition of anti-CD3-induced IL-17A level in Balb/c mouse plasma at 10 mg/kg, po treated prior to stimulation with anti-CD3 for 3 hrs relative to control; assay type: functional
[30] = AUC in mouse liver at 10 mg/kg, po; assay type: ADME, organism-based
[31] = tested on: Mus musculus; assay: Immunosuppressive activity in MOG (35 to 55 residues)/pertussis toxin-induced experimental allergic encephalomyelitis C57BL/6J mouse model assessed as reduction in disease severity score at 3 mg/kg, po bid measured at day 23 relative to dexamethasone; assay type: functional; conditions: 552 h
[32] = molecular target: T1, Nuclear receptor ROR-gamma; assay: Inverse agonist activity at RORgammat in mouse splenocytes derived naive T cells assessed as suppression of T cell differentiation to Th17 cells by measuring IL-17 secretion in presence of […]/anti-IFNgamma/TGFbeta/IL-6 for 6 days by ELISA; assay type: cell-based
[33] = tested on: Mus musculus; assay: as §1, with “CCR6” for “IL-22”; assay type: functional; conditions: 552 h
[34] = Metabolic stability in rat liver microsomes assessed as parent compound remaining at 1 uM preincubated for 5 mins followed by NADPH addition after 30 mins by LC-MS/MS analysis; assay type: ADME, Microsome; conditions: read-out: Stability
[35] = Metabolic stability in mouse hepatocytes assessed as parent compound remaining after 60 mins; assay type: ADME, cell-based, Hepatocyte; conditions: read-out: Stability
[36] = tested on: Mus musculus; assay: Immunosuppressive activity in MOG (35 to 55 residues)/pertussis toxin-induced experimental allergic encephalomyelitis C57BL/6J mouse model assessed as reduction in disease severity score at 30 mg/kg, po bid measured at day 23 relative to dexamethasone; assay type: functional; conditions: 552 h
[37] = Metabolic stability in simulated gastric fluid assessed as compound remaining after 60 mins; assay type: ADME; conditions: read-out: Stability
[38] = tested on: Mus musculus; assay: as §1, with “IL-17F” for “IL-22”, “19” for “23”; assay type: functional; conditions: 456 h
[39] = tested on: Mus musculus; assay: as §1, with “GM-CSF” for “IL-22”; assay type: functional; conditions: 552 h
[40] = tested on: Mus musculus; assay: Immunosuppressive activity in MOG (35 to 55 residues)/pertussis toxin-induced experimental allergic encephalomyelitis C57BL/6J mouse model assessed as reduction in disease severity score at 10 mg/kg, po bid measured at day 23 relative to dexamethasone; assay type: functional; conditions: 552 h
[41] = Metabolic stability in simulated gastric fluid assessed as compound remaining after 45 mins; assay type: ADME; conditions: read-out: Stability

In the case of `O=C(O)c1ccc(-n2cc(C(=O)c3c(Cl)cccc3Cl)c3cccc(F)c32)cc1`, the fraction unbound [1] is reported as 0.01, the inhibition in vivo at 30 mg/kg [2] is reported as 24% and the remaining at 1 h [3] is reported as 59%. For the same molecule, the AUC [4] was 0.29 µM·h, the bioavailability [5] was 72% and the AUC [6] was 11 µM·h. It also gave a Vd [7] of 4.8 L/kg, a Cmax [8] of 6.2 µM and a fraction unbound [9] of 0.02. For the same molecule, the IC50 [10] was > 50000 nM, the inhibition in vivo at 30 mg/kg [11] was 30% and the viability at 24 h [12] was > 95%. The Tmax [13] was 0.5 h, the clearance [14] was 23.4 mL/min/kg and the Activity [15] was “Non-Toxic”. It also gave a remaining at […] [16] of 84%, a remaining at 2 h [17] of 99% and a fraction unbound [18] of 0.01. It also gave an IC50 [19] of 500 to 503 nM, an inhibition in vivo at 30 mg/kg [20] of 43% and a remaining at 0.5 h, 1 µM [21] of 78%. For the same molecule, the remaining at […] [22] was 100%, the half-life [23] was 2.4 h and the inhibition in vivo at 30 mg/kg [24] was 33%. For the same molecule, the remaining at 0.5 h, 1 µM [25] was 88%, the remaining at 1 h [26] was 100% and the AUC(0-t) at 24 h [27] was 10.4 µM·h. For the same molecule, the fraction unbound [28] was < 0.03, the inhibition in vivo at 10 mg/kg [29] was 17% and the AUC [30] was 400 µM·h. The inhibition in vivo at 3 mg/kg [31] was 25%, the IC50 [32] was 26 nM and the inhibition in vivo at 30 mg/kg [33] was 36%. It also gave a remaining at 0.5 h, 1 µM [34] of 100%, a remaining at 1 h [35] of 80% and an inhibition in vivo at 30 mg/kg [36] of 39%. For the same molecule, the remaining at 1 h [37] was 93%, the inhibition in vivo at 30 mg/kg [38] was 70% and the inhibition in vivo at 30 mg/kg [39] was 70%. For the same molecule, the inhibition in vivo at 10 mg/kg [40] was 31% and the remaining at 0.75 h [41] was 93%.
